# From publication PMC11662004 (Communications Chemistry, 2024)
# Where “and” joins values, the source holds several entries; their conditions need not be identical. Equal values may be shown once. Read-outs that look alike come from different tables or passages of the source. Positions of bridges follow the written chain, without caps; N, C: chain ends. Non-standard residues stand in square brackets, D forms with d. Residues, ends and D or L forms follow the SMILES beside them.
# Assays:
# NgTet1 [1] = biological target: T1, NgTet1 (Naegleria gruberi, UniProt D2W6T1); assay: biochemical
# T1 construct: His6-tagged full-length Naegleria gruberi NgTet1 (321 a. a.) protein with a thrombin cleavage site; made in house; host or cells: E. coli BL21(DE3)
# T1 sequence (D2W6T1 1-321): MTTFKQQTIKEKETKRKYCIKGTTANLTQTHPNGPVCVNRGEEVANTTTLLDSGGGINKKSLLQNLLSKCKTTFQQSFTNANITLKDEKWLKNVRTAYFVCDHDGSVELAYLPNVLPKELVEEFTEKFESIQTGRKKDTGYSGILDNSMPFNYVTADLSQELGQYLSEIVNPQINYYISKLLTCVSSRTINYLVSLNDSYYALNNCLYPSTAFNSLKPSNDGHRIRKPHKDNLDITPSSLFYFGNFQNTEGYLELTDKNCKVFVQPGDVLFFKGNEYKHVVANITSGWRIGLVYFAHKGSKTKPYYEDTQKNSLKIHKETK
# Description: (Fig. 5a), were screened for inhibitory activity against NgTet1.
# (§1) Activity was normalised against reactions containing vehicle (DMSO). […] AS data shown as the mean of three experimental replicates (n = 3; mean ± SD); ^1H NMR data plotted from two independent replicates (n = 2); tabulated data reported as the mean of two and three independent replicates for ^1H NMR and AS, respectively (n = 2–3, SD reported for n = 3). N. d.: not determined; AS: AlphaScreen.
# Compounds in DMSO (100 nL) were pre-dispensed in a logarithmically linear concentration gradient onto 384-well ProxiPlates using an Echo® 550 acoustic liquid handler (Labcyte). NgTet1 was pre-incubated with the inhibitor dilution series in DMSO at room temperature for 10 min. Reactions were initiated by the addition of appropriate cofactors and DNA. […] The reactions were quenched by the addition of 30 mM EDTA (pH 4.2), 358 mM NaCl (5 μL) within the enzyme linear activity window (determined in Fig. S10). Concurrently, a mixture containing the anti-^5hmC antibody (1:2000 dilution) and AlphaScreen beads (1:62.5 dilution) in assay buffer was prepared and incubated at room temperature for 30 min. The AlphaScreen bead/antibody mixture was added to the quenched NgTet1 reactions (5 μL), and the complete mixture was incubated at room temperature for 1 h. Chemiluminescence was measured on a PHERAstar FS/FSX (BMG Labtech) equipped with an AlphaScreen 680 570 module. All AlphaScreen bead manipulations were performed under subdued lighting. Inhibition data was normalised to reactions containing vehicle only (1% v/v DMSO) and fitted using “log(inhibitor) vs. response—Variable slope (four parameters)” non-linear regression model on GraphPad Prism 5.
# NgTet1 [2] = biological target: T1, NgTet1; assay: biochemical; details: for normalised activity: NgTet1, NMR, 2 independent replicates
# Description: as §1
# All ^1H NMR spectra were recorded at 25 °C using D2O as a reference for internal deuterium lock on a Bruker Avance III 700 MHz equipped with an inverse TCI cryoprobe in 3 or 5 mm diameter tubes with a total sample volume of 160 or 565 μL, respectively. The water signal was reduced using Perfect Echo excitation sculpting suppression. Chemical shifts are reported in ppm relative to D2O (δH = 4.70 ppm).
# NgTet1 was pre-incubated with inhibitor dilution series in DMSO-d6 at room temperature for 10 min (50 mM Tris-d11 [pH 7.5], 2% v/v DMSO-d6). Reactions were initiated by the addition of appropriate cofactors and DNA. […] The reactions were quenched by the addition of 9 mM NOG and 9 mM ZnCl2 in 90 mM Tris-d11 [pH 7.5] (20 μL) within the enzyme linear activity window (determined in Figure. S10). Samples were transferred to NMR tubes and subjected to ^1H NMR analysis. Data were processed as described above. Inhibition data was normalised to reactions containing vehicle only (1% v/v DMSO-d6) and fitted using “log(inhibitor) vs. response - Variable slope (four parameters)” non-linear regression model on GraphPad Prism 5.
# Activity was normalised against reactions containing vehicle only (100% activity). Data is shown as the mean of 2 independent replicates (n = 2; […]
# Fig. S10 Determination of linear NgTet1 enzymatic activity windows for inhibitor characterisation. a 1H NMR succinate detection time courses with no DNA, 5HC DNA (double- […]
# complementary 5'-ACC AC5mC GGT GGT-3'). b AlphaScreen 5hmC detection time course using […]
# courses shown. 1H NMR reaction conditions: 5 μM NgTet1, 2 mM sodium L-ascorbate, 100 μM […]
# v/v D2O. DNA was added to a final concentration of 20 μM of double-stranded DNA. […]
structure (smiles),measurement,setting,value
CC[C@H](C)[C@@H]1NC(=O)[C@H](CC(C)C)NC(=O)[C@@H](Cc2ccc(O)cc2)NC(=O)CSC[C@@H](C(N)=O)NC(=O)[C@H](CO)NC(=O)[C@H](Cc2c[nH]cn2)NC(=O)[C@H](CCC(=O)O)NC(=O)[C@H](Cc2c[nH]c3ccccc23)NC(=O)[C@H](Cc2c[nH]c3ccccc23)NC(=O)[C@H]([C@@H](C)O)NC(=O)[C@H](Cc2ccc(O)cc2)NC(=O)[C@H](Cc2ccc(O)cc2)NC(=O)[C@H](C)NC(=O)[C@H](Cc2ccc(O)cc2)NC1=O [TiP1] ({CH2CO}-[dY]LIYAYYTWWEHSC-NH2; thioether N-14),IC50,NgTet1 [1],26.3 µM
same,"normalised activity, %","NgTet1 [1]; AlphaScreen, -Log[inhibitor] (M) 8.73132",115.665% and 99.133% and 91.2094% and 100% and 99.1774% and 99.7728% and 97.6796%
same,uncoupled 2OG decarboxylase activity relative to control,"NgTet1 [2]; 1.2 equivalents (6.17 μM) of ligand, no 5mC DNA substrate",137%
same,"normalised activity, %","NgTet1 [2]; 5mC DNA, NMR, -Log[inhibitor] (M) 3.30103",0.3831% and 0.8644%
same,"normalised activity, %","NgTet1 [2]; 5mC DNA, NMR, -Log[inhibitor] (M) 3.77815",0%
same,"normalised activity, %","NgTet1 [2]; 5mC DNA, NMR, -Log[inhibitor] (M) 4.25527",7.31% and 14.7287%
same,"normalised activity, %","NgTet1 [2]; 5mC DNA, NMR, -Log[inhibitor] (M) 4.73239",78.5121% and 83.5696%
same,"normalised activity, %","NgTet1 [2]; 5mC DNA, NMR, -Log[inhibitor] (M) 5.20951",98.5224% and 104.299%
same,"normalised activity, %","NgTet1 [2]; 5mC DNA, NMR, -Log[inhibitor] (M) 5.68664",102.213% and 96.5096%
same,"normalised activity, %","NgTet1 [2]; 5mC DNA, NMR, -Log[inhibitor] (M) 6.16376",101.348% and 99.8653%
same,"normalised activity, %","NgTet1 [2]; 5mC DNA, NMR, -Log[inhibitor] (M) 6.64088",101.5% and 99.6319%
same,"normalised activity, %","NgTet1 [2]; 5mC DNA, NMR, -Log[inhibitor] (M) 7.118",99.9781% and 101.169%
same,"normalised activity, %","NgTet1 [2]; 5mC DNA, NMR, -Log[inhibitor] (M) 7.59512",101.989% and 101.514%
same,normalised activity,NgTet1 [2]; -Log[inhibitor] (M) 3.30103,1.539% and 0.6062%
same,normalised activity,NgTet1 [2]; -Log[inhibitor] (M) 3.77815,5.644% and 0.04671%
same,normalised activity,NgTet1 [2]; -Log[inhibitor] (M) 4.25527,23.0301% and 11.8368%
same,normalised activity,NgTet1 [2]; -Log[inhibitor] (M) 4.73239,129.261% and 95.1469%
same,normalised activity,NgTet1 [2]; -Log[inhibitor] (M) 5.20951,124.894% and 132.33%
same,normalised activity,NgTet1 [2]; -Log[inhibitor] (M) 5.68664,97.9138% and 111.807%
same,normalised activity,NgTet1 [2]; -Log[inhibitor] (M) 6.16376,101.603% and 106.324%
same,normalised activity,NgTet1 [2]; -Log[inhibitor] (M) 6.64088,102.045% and 105.397%
same,normalised activity,NgTet1 [2]; -Log[inhibitor] (M) 7.118,107.511% and 102.971%
same,normalised activity,NgTet1 [2]; -Log[inhibitor] (M) 7.59512,96.6941%
same,IC50,"NgTet1 [2]; IC50, 5mC DNA, NMR, 2OG decarboxylation with 20 µM 5mC DNA, 5 μM NgTet1, 50 μM 2OG",28.8 µM
same,IC50,"NgTet1 [2]; IC50, No DNA, NMR, uncoupled 2OG decarboxylation, no DNA, 5 μM NgTet1, 50 μM 2OG",26.3 µM
same,IC50,"NgTet1 [2]; IC50 across all assays, AS and 1H NMR assays",26 to 29 µM
same,"normalised activity, %","NgTet1 [2]; No DNA, NMR, -Log[inhibitor] (M) 3.30103",1.539% and 0.6062%
same,"normalised activity, %","NgTet1 [2]; No DNA, NMR, -Log[inhibitor] (M) 3.77815",5.644% and 0.04671%
same,"normalised activity, %","NgTet1 [2]; No DNA, NMR, -Log[inhibitor] (M) 4.25527",23.0301% and 11.8368%
same,"normalised activity, %","NgTet1 [2]; No DNA, NMR, -Log[inhibitor] (M) 4.73239",129.261% and 95.1469%
same,"normalised activity, %","NgTet1 [2]; No DNA, NMR, -Log[inhibitor] (M) 5.20951",124.894% and 132.33%
same,"normalised activity, %","NgTet1 [2]; No DNA, NMR, -Log[inhibitor] (M) 5.68664",97.9138% and 111.807%
same,"normalised activity, %","NgTet1 [2]; No DNA, NMR, -Log[inhibitor] (M) 6.16376",101.603% and 106.324%
same,"normalised activity, %","NgTet1 [2]; No DNA, NMR, -Log[inhibitor] (M) 6.64088",102.045% and 105.397%
same,"normalised activity, %","NgTet1 [2]; No DNA, NMR, -Log[inhibitor] (M) 7.118",107.511% and 102.971%
same,"normalised activity, %","NgTet1 [2]; No DNA, NMR, -Log[inhibitor] (M) 7.59512",96.6941%
same,"normalised activity, %","NgTet1 [2]; TiP1 statistical test, NMR, no DNA, NgTet1/TiP1 ratio 1:1.2, technical replicates",140.602% and 133.857% and 142.6% and 131.935%
same,"normalised activity, %","NgTet1 [2]; TiP1 statistical test, NMR, no DNA, NgTet1/TiP1 ratio 1:3.7, technical replicates",103.459% and 107.449% and 116.09% and 117.125%
